From publication PMC12587574, “Mass balance, pharmacokinetics, metabolism, and excretion of radiolabeled acoziborole, a potential novel treatment for human African trypanosomiasis, following single microtracer oral dose to humans” (Antimicrobial Agents and Chemotherapy, 2025)
Several values for one entry are separate records, joined by “and”; a condition that tells them apart may be missing. Equal entries are not always repeated.

Experiments:
[1] = Total radioactivity in blood and plasma by accelerator mass spectrometry, phase I mass balance study; type: in vivo, human; details: 960 mg single oral dose
Method: Venous blood samples were collected via an indwelling cannula or by venepuncture. A 12 mL sample was taken into heparinized glass tube and chilled on ice immediately before IP administration and 3 mL samples were taken at 1, 4, 9, 12, 24, 48, 72, 96, 120, 144, 168, and 240 h and on Days 15, 31, 59, 89, and 119 after IP administration. The first 0.5 mL of blood withdrawn via cannula was discarded. One aliquot of heparinized whole blood (1 mL) per time point was stored at or below −20°C for total radioactivity analysis. The remaining blood was centrifuged, and the harvested plasma was stored at approximately −20°C for bioanalysis or transferred (exactly 1 mL) into polypropylene tubes pre-filled with 5 µL formic acid. One plasma sample (0.5 mL) was used for metabolite profiling while another (0.5 mL) was used for parent drug and SCYX-3109 metabolite analysis. The remaining plasma was used for total radioactivity analysis.
(§1) TNO (Leiden, the Netherlands) performed the analysis of total radioactivity and the metabolite profiling and identification. All blood, plasma, urine, and fecal homogenate samples were analyzed for total radioactivity by accelerator mass spectrometry (AMS). AMS analysis was performed on a 1 MV multi-element AMS, model 4110 Bo, high voltage engineering (software: AMS 155), using Australian National University (ANU) sucrose-8542 (C12H22O11) with a certified ^14C/^12C isotope ratio ([10]) as the system suitability test sample and [^14C]-paracetamol as an AMS quality check sample.
(§2) For each (diluted) sample, 5 µL blood, 5 µL plasma, 15 µL urine, or 30 mg fecal homogenate prepared in 1% CMC solution (1% CMC solution:feces ratio of 4:1) were transferred to tin foil cups. The samples were dried under a stream of nitrogen and subsequently placed in the elemental analyzer (EA, Vario Micro, Elementar, Germany), which acts as an autosampler and combustion device for the AMS. Single samples of blood, plasma, and urine were analyzed. Fecal homogenates were analyzed in triplicate, and the averaged value was reported. Total radioactivity in plasma and blood was expressed as ng equivalents (Eq) of acoziborole/mL. The LLOQ was 47.3 ngEq/mL in plasma (1.51 mBq/mL), 165.4 ngEq/mL in blood (5.28 mBq/mL), 33.8 ngEq/mL in urine (1.08 mBq/mL), and 87.1 ngEq/mL in feces (2.78 mBq/mL).
(§3) Blood-to-plasma ratio was calculated based on Cmax and AUC values. For total radioactivity excreted in urine, feces, and both combined, the following parameters were calculated: total amount of total radioactivity excreted over the time interval between t1 and t2 (Aet1−t2), Aet1−t2 expressed as a percentage of the radioactive dose administered (%Aet1−t2), CumAe, and Cum%Ae. For CumAe calculation, the recovery of total radioactivity during WinNonlin time intervals in which urine and feces were not collected was estimated using the area under the excretion rate-time curve from the end of the preceding collection interval to the start of the subsequent collection interval.

[2] = Excretion and mass balance of total radioactivity in urine and feces (AMS); type: in vivo, human
Method: Urine samples were collected before IP administration (single urine void) and then during intervals of 0–6, 6–12, 12–24, 24–48, 48–72, 72–96, 96–120, 120–168, 168–192, 192–216, and 216–240 h post-dose and for the additional 48-h collection period starting on Day 15 post-dose, that is, 336–384 h. Samples were acidified with citric acid to avoid acoziborole degradation and were refrigerated until the end of the block collection periods. The total weight and volume of urine were then recorded. At the end of each collection period, two aliquots of acidified urine (20 mL) were taken from the sample and stored in polypropylene tubes at −20°C until further analysis for total radioactivity. Two aliquots of 1 mL acidified urine were collected into tubes containing bovine serum albumin in aqueous solution (to avoid non-specific adsorption of acoziborole) and NaCl for acoziborole and SCYX-3109 assays. Urine samples for metabolite profiling were pooled for each participant according to the time intervals reported above, from 0 to 240 h.
Feces were collected before dosing and at block intervals of 0–6, 6–12, 12–24, 24–48, 48–72, 72–96, 96–120, 120–168, and 168–240 h post-dose and for five additional 48-h home collection periods starting on Days 15, 29, 59, 89, and 119. At the end of each collection period, a portion of the sample (50 g) was retained and stored at approximately −20°C until analyzed. The remaining fecal homogenate was combined with that collected at the end of each time interval and stored at approximately −20°C.
as §1, §2, §3

[3] = Distribution study of [14C]-acoziborole in Sprague-Dawley rats; type: in vivo; details: 10 mg/kg (200 µCi/kg)
[4] = tested on: T.b. gambiense; design: method as in PMID 21738803; details: oral 5–25 mg/kg/day; acute and chronic infection; cited from earlier work
[5] = design: method as in PMID 21738803; details: NHPs, cited from earlier work
[6] = tested on: MDCK-MDR1 cell monolayer; details: cited from earlier work
[7] = N = 6, mean ± SD, listed as [^14C]-acoziborole
[8] = 960 mg single oral dose, N = 6, mean and SD
[9] = 960 mg single oral dose, N = 6, mean and SD, listed as [^14C]-acoziborole
[10] = t set to 1440 h (60 days), N = 6, mean and SD
[11] = t set to 1440 h (Day 60), N = 6, mean and SD, listed as [^14C]-acoziborole

CC1(C)OB(O)c2cc(NC(=O)c3ccc(F)cc3C(F)(F)F)ccc21 [acoziborole]
mean whole blood to plasma total radioactivity ratios (Cmax and AUC0–240h), interpretation [1]: no affinity for blood cells
median tmax, total radioactivity in plasma ([1]; N = 6): 48 h
AUC0–240h, total radioactivity, whole blood ([1]; N = 6, mean ± SD): 2,250.737 ± 182.816 µg-eq*h/mL
AUC0–t, total radioactivity, plasma ([1]; N = 6, mean ± SD): 5,403.286 ± 1,561.755 µg-eq*h/mL
AUC0–t, total radioactivity, whole blood ([1]; N = 6, mean ± SD): 3,556.202 ± 3,236.208 µg-eq*h/mL
AUC0–∞, total radioactivity, plasma ([1]; N = 6, mean ± SD): 5,785.324 ± 1,105.726 µg-eq*h/mL
AUC0–∞, total radioactivity, whole blood ([1]; N = 6, mean ± SD): 5,382.336 ± 2,473.408 µg-eq*h/mL
tmax, total radioactivity, plasma ([1]; N = 6, mean ± SD): 56.0 ± 12.4 h
tmax, total radioactivity, whole blood ([1]; N = 6, mean ± SD): 68.1 ± 9.9 h
AUC0–240h, total radioactivity, plasma [1, 7]: 2,371.786 ± 255.572 µg-eq*h/mL
t1/2, total radioactivity, plasma [1, 7]: 278.3 h and 278 h and 278.3 ± 47.4 h
t1/2, total radioactivity, whole blood [1, 7]: 239.2 h and 239.2 ± 65.7 h
Cmax, total radioactivity, whole blood ([1]; healthy males, N = 6, mean ± SD): 12.052 ± 1.129 µg-eq/mL
Cmax, total radioactivity, plasma ([1]; healthy males, N = 6, mean ± SD, listed as [^14C]-acoziborole): 13.13 µg-eq/mL and 13.130 ± 1.776 µg-eq/mL
mean whole blood to plasma total radioactivity ratios (Cmax and AUC0–240h), interpretation ([1]; listed as [^14C]-acoziborole): equivalent distribution between blood cells and plasma
Cum%Ae0-240h dose, total radioactivity recovered (urine and faeces) [2, 8]: 58.6 ± 8.6%
Cum%Ae0-384h dose, total radioactivity recovered (urine and faeces) [2, 8]: 70.8 ± 8.1%
CumAe0-240h, total radioactivity in faeces [2, 8]: 488.8 ± 84.8 mgEq
CumAe0-240h, total radioactivity in urine [2, 8]: 74.0 ± 18.5 mgEq
CumAe0-240h, total radioactivity recovered (urine and faeces) [2, 8]: 562.9 ± 82.8 mgEq
CumAe0-384h, total radioactivity in faeces [2, 8]: 574.9 ± 81.4 mgEq
CumAe0-384h, total radioactivity in urine [2, 8]: 104.6 ± 28.9 mgEq
CumAe0-384h, total radioactivity recovered (urine and faeces) [2, 8]: 679.6 ± 77.5 mgEq
Cum%Ae0-240h dose, total radioactivity in faeces [2, 9]: 50.9 ± 8.8%
Cum%Ae0-240h dose, total radioactivity in urine [2, 9]: 7.7 ± 1.9%
Cum%Ae0-384h dose, total radioactivity in faeces [2, 9]: 59.9 ± 8.5%
Cum%Ae0-384h dose, total radioactivity in urine [2, 9]: 10.9 ± 3.0%
increment in excretion of total radioactivity ([2]; between Days 59 and 61 (up to 1,440 h)): < 1%
absorbed fraction, estimated ([2]; fasting condition, assuming gastrointestinal transit time of approximately 3 days): ≥ 70 % of the dose
geometric mean recovery of total radioactivity in urine and feces ([2]; over the total 1,392 h, CV% 5.5%): 87.2%
CumAe0-t, total radioactivity in faeces [2, 10]: 712.1 ± 56.4 mgEq
CumAe0-t, total radioactivity recovered (urine and faeces) [2, 10]: 838.4 ± 48.9 mgEq
Cum%Ae0-t dose, total radioactivity in faeces [2, 11]: 74.2% and 74.2 ± 5.9%
Cum%Ae0-t dose, total radioactivity recovered (urine and faeces) [2, 11]: 87.3% and 87.3 ± 5.1%
CumAe0-t, total radioactivity in urine ([2]; urine collection limited to 384 h, N = 6, mean and SD): 104.6 ± 28.9 mgEq
Cum%Ae0-t dose, total radioactivity in urine ([2]; urine collection limited to 384 h, N = 6, mean and SD, listed as [^14C]-acoziborole): 10.9% and 10.9 ± 3.0%
radioactivity collected in feces during 7 days, share of total radioactivity ([3]; female rats): > 73%
radioactivity in combined feces and urine during 7 days, share of total radioactivity ([3]; female rats): > 86%
radioactivity collected in feces during 7 days, share of total radioactivity ([3]; male rats): over 66%
radioactivity in combined feces and urine during 7 days, share of total radioactivity ([3]; male rats): over 85%
effect on survival of infected mice [4]: significantly prolong survival
outcome of oral treatment in infected mice [4]: curative
concentration in the CSF as percentage of the plasma concentration ([5]; at each time point): approximately 5%
absolute bioavailability ([5]; oral): 89%
apparent permeability [6]: 77.6 ×10⁻⁶ cm/s
